Measured values taken from ChEMBL document CHEMBL1201862, “PubChem BioAssay data set” (2004).
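Dose response: 5 concentrations. Exposure: 48 h. Format: 96-well plates. Endpoint: linear interpolation; highest concentration if not reached. At the GI50, growth is halved.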 Activity calls are given as the source filed them. Rule as the data show it: active = GI50 up to about 1.1 µM and inactive = higher.

How the values were obtained:
Assay in all cases: growth of human tumour cells (NCI), 48 h
A549 = system: A549
COLO 205 = system: COLO 205
DU-145 = system: DU-145
HCT-116 = system: HCT-116
MDA-MB-435 = system: MDA-MB-435
MOLT-4 = system: MOLT-4
NCI-H23 = system: NCI-H23
NCI-H522 = system: NCI-H522
PC-3 = system: PC-3
SK-MEL-2 = system: SK-MEL-2
SK-MEL-5 = system: SK-MEL-5
SK-OV-3 = system: SK-OV-3
SW-620 = system: SW-620
T47D = system: T47D
TK-10 = system: TK-10
U-251 = system: U-251
UACC-257 = system: UACC-257
NCI-H460 = system: NCI-H460
RPMI-8226 = system: RPMI-8226

Measured: GI50

CC1(CC(=O)OC(C#C[Si](C)(C)C)Cc2ccccc2)OCCO1 (configuration not stated)
inactive: A549 > 100 µM | COLO 205 > 100 µM | DU-145 > 100 µM | HCT-116 > 100 µM | MDA-MB-435 > 100 µM | MOLT-4 > 100 µM | NCI-H23 > 100 µM | NCI-H522 > 100 µM | PC-3 > 100 µM | SK-MEL-2 > 100 µM | SK-MEL-5 > 100 µM | SK-OV-3 > 100 µM | SW-620 > 100 µM | T47D > 100 µM | TK-10 > 100 µM | U-251 > 100 µM | UACC-257 > 100 µM

COC(=O)c1ccc(CCC2=CC(=O)C=CC2=O)cc1
inactive: A549 23.5 µM | COLO 205 7.03 µM | DU-145 18.2 µM | HCT-116 7.8 µM | MDA-MB-435 11.7 µM | MOLT-4 1.63 µM | NCI-H23 17.9 µM | NCI-H460 19 µM | NCI-H522 1.62 µM | PC-3 12.1 µM | RPMI-8226 1.8 µM | SK-MEL-2 16.4 µM | SK-MEL-5 12.9 µM | SW-620 4.52 µM | T47D 2.94 µM | TK-10 19 µM | U-251 11.2 µM | UACC-257 9.08 µM

O=[N+]([O-])c1ccc(NN=C2CN3CCN(C2)c2ccccc23)c([N+](=O)[O-])c1
inactive: A549 > 100 µM | COLO 205 > 100 µM | DU-145 > 100 µM | HCT-116 > 100 µM | MDA-MB-435 > 100 µM | MOLT-4 > 100 µM | NCI-H23 > 100 µM | NCI-H460 > 100 µM | NCI-H522 > 100 µM | PC-3 > 100 µM | SK-MEL-5 > 100 µM | SK-OV-3 > 100 µM | SW-620 > 100 µM | T47D > 100 µM | TK-10 > 100 µM | U-251 > 100 µM | UACC-257 > 100 µM

COc1cc(C2SC(C)C(=O)N2c2ccc(-c3csc(NS(=O)(=O)c4ccc(Cl)c(OC)c4)n3)cc2)ccc1O (configuration not stated)
inactive: A549 > 100 µM | COLO 205 > 100 µM | DU-145 > 100 µM | HCT-116 31.8 µM | MDA-MB-435 > 100 µM | MOLT-4 25.1 µM | NCI-H23 22.6 µM | NCI-H460 > 100 µM | NCI-H522 21.7 µM | PC-3 > 100 µM | SK-MEL-2 48.5 µM | SK-MEL-5 > 100 µM | SK-OV-3 > 100 µM | SW-620 31.8 µM | T47D 40.5 µM | TK-10 > 100 µM | U-251 46.5 µM | UACC-257 85.7 µM

Cc1c(C)c2c(c(N)c1C#N)C(=O)N(NC(=O)c1ccccc1)C2=O
inactive: A549 > 100 µM | COLO 205 > 100 µM | DU-145 > 100 µM | HCT-116 > 100 µM | MDA-MB-435 > 100 µM | MOLT-4 > 100 µM | NCI-H460 > 100 µM | NCI-H522 > 100 µM | PC-3 > 100 µM | RPMI-8226 > 100 µM | SK-MEL-2 > 100 µM | SK-MEL-5 > 100 µM | SW-620 > 100 µM | T47D 24.8 µM | TK-10 > 100 µM | U-251 > 100 µM | UACC-257 > 100 µM

CCCOC(=O)NC(C)C(=O)NC(CCC(=O)NC(CCCC(N)C(=O)O)C(=O)NC(C)C(=O)O)C(=O)O (configuration not stated)
inactive: A549 74.6 µM | COLO 205 27.2 µM | DU-145 24.4 µM | HCT-116 34.4 µM | MDA-MB-435 56.8 µM | MOLT-4 23 µM | NCI-H23 > 100 µM | NCI-H460 38.7 µM | NCI-H522 26.8 µM | PC-3 23.9 µM | RPMI-8226 12.3 µM | SK-MEL-2 54.2 µM | SK-MEL-5 15.7 µM | SW-620 23 µM | T47D 18.3 µM | TK-10 69.8 µM | U-251 25.5 µM | UACC-257 > 10 µM

CCOC(=O)C1=C(C)N(CC(C)C)C2(O)C(OC)CC(=O)C3C(=O)N(c4ccccc4)C(=O)C132 (configuration not stated)
inactive: A549 43.4 µM | COLO 205 39 µM | DU-145 52 µM | HCT-116 40.5 µM | MDA-MB-435 37 µM | MOLT-4 15.4 µM | NCI-H23 35 µM | NCI-H460 36.5 µM | NCI-H522 16.5 µM | PC-3 34 µM | RPMI-8226 33 µM | SK-MEL-2 20.4 µM | SK-MEL-5 20.1 µM | SW-620 34 µM | T47D 47 µM | TK-10 77.1 µM | U-251 45.4 µM | UACC-257 37.4 µM

OCC1CCCC1O (configuration not stated)
inactive: A549 > 100 µM | COLO 205 > 100 µM | DU-145 > 100 µM | HCT-116 > 100 µM | MDA-MB-435 > 100 µM | MOLT-4 > 100 µM | NCI-H23 > 100 µM | NCI-H460 > 100 µM | NCI-H522 > 100 µM | PC-3 > 100 µM | RPMI-8226 > 100 µM | SK-MEL-2 > 100 µM | SK-MEL-5 > 100 µM | SW-620 > 100 µM | T47D > 100 µM | TK-10 > 100 µM | U-251 > 100 µM | UACC-257 > 100 µM

COC1CC(N)C(O)C(C)O1 (configuration not stated)
inactive: COLO 205 > 100 µM | DU-145 > 100 µM | HCT-116 > 100 µM | MDA-MB-435 > 100 µM | MOLT-4 > 100 µM | NCI-H23 > 100 µM | NCI-H460 > 100 µM | NCI-H522 > 100 µM | PC-3 > 100 µM | RPMI-8226 > 100 µM | SK-MEL-5 > 100 µM | SK-OV-3 > 100 µM | SW-620 > 100 µM | T47D > 100 µM | U-251 > 100 µM | UACC-257 > 100 µM

O=C(NC(Cc1c[nH]c2ccccc12)C(=O)O)/C(=C/c1ccccc1O)NC(=O)c1ccccc1 (configuration not stated)
inactive: A549 60.5 µM | COLO 205 > 100 µM | DU-145 43.4 µM | HCT-116 42.6 µM | MDA-MB-435 18.9 µM | MOLT-4 > 100 µM | NCI-H23 51.6 µM | NCI-H460 33.2 µM | NCI-H522 20.4 µM | RPMI-8226 > 100 µM | SK-MEL-5 > 100 µM | SK-OV-3 22.3 µM | SW-620 > 100 µM | T47D 12.1 µM | TK-10 37.7 µM | U-251 39.1 µM | UACC-257 > 100 µM

c1ccc2c(c1)nc1n2CCNC1
inactive: A549 > 100 µM | COLO 205 > 100 µM | DU-145 > 100 µM | HCT-116 > 100 µM | MDA-MB-435 > 100 µM | MOLT-4 > 100 µM | NCI-H23 > 100 µM | NCI-H460 > 100 µM | PC-3 > 100 µM | RPMI-8226 > 100 µM | SK-MEL-2 > 100 µM | SK-MEL-5 > 100 µM | SK-OV-3 > 100 µM | SW-620 > 100 µM | T47D > 100 µM | TK-10 > 100 µM | U-251 > 100 µM | UACC-257 > 100 µM
